Data published in patent US20250115612A1, “CERTAIN 2,5-DIAZABICYCLO[4.2.0]OCTANES AND OCTAHYDROFURO[3,4-B]PYRAZINES AS GLP-1 RECEPTOR MODULATORS” (ASTRAZENECA AB, priority 2021, published 2025).

How the values were obtained:
[1] = target: T1, human GLP-1R receptor (Homo sapiens, UniProt P43220, L260F); experiment: CHOK1 GLP-1R cAMP assay (HTRF); type: cell-based; details: CHO-K1 cells stably expressing human GLP-1R
T1 construct: expressed in transfected cells; host or cells: CHO-K1 (ATCC CCL-61)
Method: A cell line stably expressing the human GLP-1R receptor (NM_002062.5, including the naturally-occurring variant Leu260Phe) in a CHO-K1 (ATCC® CCL-61™) was used for assay.
GLP-1 receptor mediated agonist activity was determined in a cell-based assay measuring cyclic adenosine monophosphate (cAMP) levels in cells using Homogeneous Time-Resolved Fluorescence (HTRF) cAMP detection kit (CisBio catalog #62AM4PEC, cAMP Gs Dynamic range kit). The cAMP detection method is based on a competitive immunoassay, in which cAMP produced by the cells and cAMP labeled with the dye d2 compete for binding to a Europium-Cryptate-labeled anti-cAMP antibody. The specific HTRF signal is inversely proportional to the concentration of cAMP.
Compounds were added to individual well in 384 well-assay plates (Greiner #784076) using an Echo (LabCyte) dispenser from 10 mM stocks. Varying concentration of compounds were added to wells, and DMSO was used to normalize each well to a volume of 100 nL. A dose response curve of GLP-1(7-36)NH2 (Bachem H-6795) was included in each run. 5 μL of cAMP concentration response standards are applied in specified wells in the assay plates. Cryo-preserved cells are thawed and resuspended in assay buffer pre-heated to 37° C. (20 mM 2-[4-(2-hydroxyethyl)piperazin-1-yl]ethanesulfonic acid (HEPES) pH 7.4, lx Hank's Balanced Salt Solution (HBSS, Life Technologies #14065) supplemented with 0.1% (w/v) bovine serum albumin (Sigma, A-7030)). Cells were centrifuged at 250*g for 5 min at rt, and resuspended in room tempered assay buffer to a final density of 0.16*10^6 cell/mL, to deliver 800 cells/well. 5 μL of assay buffer with 1 mM 3-isobutyl-1-methylxanthin (IBMX; Sigma cat I-7018) was dispensed per well in assay plates using a multidrop combi (Thermo Scientific) subsequently 5 μL of cell suspension was distributed to relevant wells in the assay using a multidrop dispenser. Assay plates were incubated 20 min at rt.
Detection reagents, Europium-Cryptate-labeled anti-cAMP antibody and cAMP labeled with the dye d2, are diluted in lysis buffer, provided by the manufacturer. 5 μL of each detection reagent is supplemented to each assay well using a multidrop dispenser. Assay plates are incubated in the dark for at least one h. The HTRF signal is measured using the HTRF module (excitation: 337 nm, emission A: 665 nm and emission B: 620 nm) in Pherastar FSX (BMG Labtech).
Raw data were converted to pM cAMP using the cAMP standard curve included in each run. Converted data were further analyzed in Genedata Screener (Genedata) and EC50 determinations were made from agonist dose-response curves analyzed with a curve fitting program using a 4-parameter logistic dose response equation (Equation y=A+((B−A)/1+((C/x)^D))) where A is no stimulation, B is full stimulation, C is the EC50 and D is the Hill slope). The percent effect was determined relative to a saturating concentration of a full GLP-1R agonist (GLP-1(7-36)NH2 has 100% effect in this assay setup).

[2] = target: T2, GLP-1R (Homo sapiens, UniProt P43220); experiment: EndoC cAMP accumulation assay (HTRF, EndoC-βH1 cells); type: cell-based; details: EndoC-βH1 human pancreatic β cell line
T2 construct: host or cells: EndoC-βH1
Text: EndoC cAMP Accumulation Assay
A HTRF cAMP assay (cAMP Gs dynamic kit; CisoBio Cat #62AM4PEJ) was used to identify agonists of GLP-1R in a pancreatic insulinoma cell line (EndoC-PH1). […] EndoC-βH1 cells have detectable GLP-1R messenger ribonucleic acid (mRNA) as detected by quantitative polymerase chain reaction (qPCR). […] The EndoC-βH1 cell line is a valid model of human beta cells and applicable for screenings to identify novel drug target candidates (Mol. Metab., 2018, 8, 144-157). CisBio HTRF cAMP kits are based on a competitive immunoassay using cryptate-labelled anti-cAMP antibody and d2-labeled cAMP. The detection kit is intended for the direct quantitative determination of cAMP. The specific signal (i.e. energy transfer) is inversely proportional to the concentration of cAMP in the standard or sample. Test compounds (10 mM in DMSO) were diluted into assay buffer (HBSS (Sigma #H8264) supplemented with 25 mM HEPES (Gibco #15630, pH 7.4), 0.1% BSA (Sigma #A3059) and 0.5 mM IBMX (Sigma #I7018) included fresh on the day of the assay) into 96 well U-bottom plates (Greiner #650201). Diluted compounds were transferred to ECHO source polypropelene plates (Labcyte #P-05525) and dose response curves were dispensed acoustically using ECHO 550 into black shallow-well u-bottom 384-well HTRF Assay Plates (Corning 4514).
Cryovials of EndoC-H1 (supplied at 1×10e^7 cells/vial) were used directly for screening. The cryovials and were removed from N2(l) and thawed rapidly in a 37° C. water bath. The cells were resuspended in assay buffer and centrifuged at 300 g for 5 min. Cells were resuspended in assay buffer at the appropriate concentration, typically at 12e5 cells per mL (3000 cells per well, dependent on cell batch) and 2.5 μL diluted cells were added to all wells of destination plate by Multidrop combi reagent dispenser (Thermofisher). The plates were incubated at rt for 30 min. The assay was stopped by adding 2.5 μL anti-cAMP cryptate solution to all wells and 2.5 μL cAMP-d2 solution (both diluted 1:20 in lysis buffer) to columns 1-22 by Combi drop. A volume of 2.5 μL cAMP-d2 solution was added to wells E23 to P24 and 2.5 μL lysis buffer added to wells A23 to D24 by multichannel pipette. The plates were incubated at rt for 1 h and read on an Envision plate reader using excitation wavelength of 320 nm and emission of 590 nm and 660 nm.
Raw data from Envision is converted to % DeltaF according to the manufacturer's instructions. Dose response curves are analysed via 4-Parameter Logistical Analysis and assay plate Z′ values obtained. Samples are graphed as percentage (%) activation plots compared to GIP (1-42, Bachem H-5645) with assay window defined by negative control as basal cell cAMP levels and positive control are defined by maximum GIP (82.5 nM) signal. GLP-1 (7-36 amide, Bachem H-6795) dose response curve was included on all plates.

T2 sequence (P43220 24-463): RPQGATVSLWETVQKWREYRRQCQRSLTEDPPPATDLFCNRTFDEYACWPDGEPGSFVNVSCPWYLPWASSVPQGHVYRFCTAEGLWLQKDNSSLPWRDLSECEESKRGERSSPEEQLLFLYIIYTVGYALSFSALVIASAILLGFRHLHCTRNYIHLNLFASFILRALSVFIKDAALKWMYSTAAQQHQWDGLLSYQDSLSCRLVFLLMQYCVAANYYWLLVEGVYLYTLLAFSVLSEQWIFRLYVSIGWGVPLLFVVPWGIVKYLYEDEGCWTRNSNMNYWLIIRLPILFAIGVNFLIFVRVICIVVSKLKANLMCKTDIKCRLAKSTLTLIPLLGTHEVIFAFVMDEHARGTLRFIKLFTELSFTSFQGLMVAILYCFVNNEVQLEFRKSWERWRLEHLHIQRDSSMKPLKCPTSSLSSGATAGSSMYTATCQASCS
T1 sequence (P43220 24-463 L260F): as the sequence (P43220 24-463) above, with L237F counted along it

| Structure (SMILES) | EC50 [1] [nM] | EC50 [2] [nM] |
| --- | --- | --- |
| Cn1ccc(Cn2c(CN3CCN(c4cccc(OCc5ccc(C#N)cc5F)n4)[C@@H]4CC[C@@H]43)nc3ccc(C(=O)O)cc32)n1 (racemic) [Example 1, rac-2-(((1R,6S)-5-(6-((4-Cyano-2-fluorobenzyl)oxy)pyridin-2-yl)-2,5-diazabicyclo[4.2.0]octan-2-yl)methyl)-1-((1-methyl-1H-pyrazol-3-yl)methyl)-1H-benzo[d]imidazole-6-carboxylic acid] | 130 | 280 |
| CC(C)(C)OCCn1c(CN2CCN(c3cccc(OCc4ccc(C#N)cc4F)n3)[C@@H]3CC[C@@H]32)nc2ccc(C(=O)O)cc21 (racemic) [Example 10, rac-1-(2-(tert-Butoxy)ethyl)-2-(((1R,6S)-5-(6-((4-cyano-2-fluorobenzyl)oxy)pyridin-2-yl)-2,5-diazabicyclo[4.2.0]octan-2-yl)methyl)-1H-benzo[d]imidazole-6-carboxylic acid] | 370 | – |
| CCCCOCCn1c(CN2CCN(c3cccc(OCc4ccc(C#N)cc4F)n3)[C@@H]3CC[C@@H]32)nc2ccc(C(=O)O)cc21 (racemic) [Example 11, rac-1-(2-Butoxyethyl)-2-(((1R,6S)-5-(6-((4-cyano-2-fluorobenzyl)oxy)pyridin-2-yl)-2,5-diazabicyclo[4.2.0]octan-2-yl)methyl)-1H-benzo[d]imidazole-6-carboxylic acid] | 150 | – |
| Cc1cc(Cn2c(CN3CCN(c4cccc(OCc5ccc(C#N)cc5F)n4)[C@@H]4CC[C@@H]43)nc3ccc(C(=O)O)cc32)no1 (racemic) [Example 13, rac-2-(((1R,6S)-5-(6-((4-Cyano-2-fluorobenzyl)oxy)pyridin-2-yl)-2,5-diazabicyclo[4.2.0]octan-2-yl)methyl)-1-((5-methylisoxazol-3-yl)methyl)-1H-benzo[d]imidazole-6-carboxylic acid] | 110 | 100 |
| Cc1ccnc(Cn2c(CN3CCN(c4cccc(OCc5ccc(C#N)cc5F)n4)[C@@H]4CC[C@@H]43)nc3ccc(C(=O)O)cc32)c1 (racemic) [Example 14, rac-2-(((1R,6S)-5-(6-((4-Cyano-2-fluorobenzyl)oxy)pyridin-2-yl)-2,5-diazabicyclo[4.2.0]octan-2-yl)methyl)-1-((4-methylpyridin-2-yl)methyl)-1H-benzo[d]imidazole-6-carboxylic acid] | 400 | 2800 |
| O=C(O)c1ccc2nc(CN3CCN(c4cccc(OCc5ccc(Cl)cc5F)n4)[C@@H]4COC[C@@H]43)n(C[C@@H]3CCO3)c2c1 (racemic) [Example 15, 2-(((4aRS,7aSR)-4-(6-((4-Chloro-2-fluorobenzyl)oxy)pyridin-2-yl)hexahydrofuro[3,4-b]pyrazin-1(2H)-yl)methyl)-1-(((S)-oxetan-2-yl)methyl)-1H-benzo[d]imidazole-6-carboxylic acid] | 3.3 | 14 |
| N#Cc1ccc(COc2cccc(N3CCN(Cc4nc5ccc(C(=O)O)cc5n4C[C@@H]4CCO4)[C@H]4CC[C@H]43)n2)c(F)c1 (single isomer, unassigned) [Example 2a, 2-(((1R*,6S*)-5-(6-((4-Cyano-2-fluorobenzyl)oxy)pyridin-2-yl)-2,5-diazabicyclo[4.2.0]octan-2-yl)methyl)-1-(((S)-oxetan-2-yl)methyl)-1H-benzo[d]imidazole-6-carboxylic acid] | 1.2 | 4.1 |
| N#Cc1ccc(COc2cccc(N3CCN(Cc4nc5ccc(C(=O)O)cc5n4C[C@@H]4CCO4)[C@H]4CC[C@H]43)n2)c(F)c1 (single isomer, unassigned) [Example 2b, 2-(((1R*,6S*)-5-(6-((4-Cyano-2-fluorobenzyl)oxy)pyridin-2-yl)-2,5-diazabicyclo[4.2.0]octan-2-yl)methyl)-1-(((S)-oxetan-2-yl)methyl)-1H-benzo[d]imidazole-6-carboxylic acid] | 17 | 32 |
| N#Cc1ccc(COc2cccc(N3CCN(Cc4nc5c(F)cc(C(=O)O)cc5n4C[C@@H]4CCO4)[C@H]4CC[C@@H]43)n2)c(F)c1 (single isomer, unassigned) [Example 3a, 2-(((1R*,6R*)-5-(6-((4-Cyano-2-fluorobenzyl)oxy)pyridin-2-yl)-2,5-diazabicyclo[4.2.0]octan-2-yl)methyl)-4-fluoro-1-(((S)-oxetan-2-yl)methyl)-1H-benzo[d]imidazole-6-carboxylic acid] | 23 | 13 |

Next, values leading:

| EC50 [1] [nM] | EC50 [2] [nM] | Structure (SMILES) |
| --- | --- | --- |
| 6.4 | 4 | COc1cc(C(=O)O)cc2c1nc(CN1CCN(c3cccc(OCc4ccc(Cl)cc4F)n3)[C@H]3CC[C@@H]31)n2C[C@@H]1CCO1 (single isomer, unassigned) [Example 5a, 2-(((1R*,6R*)-5-(6-((4-Chloro-2-fluorobenzyl)oxy)pyridin-2-yl)-2,5-diazabicyclo[4.2.0]octan-2-yl)methyl)-4-methoxy-1-(((S)-oxetan-2-yl)methyl)-1H-benzo[d]imidazole-6-carboxylic acid] |
| 95 | 57 | N#Cc1ccc(COc2cccc(N3CCN(Cc4nc5c(Cl)cc(C(=O)O)cc5n4C[C@@H]4CCO4)[C@H]4CC[C@H]43)n2)c(F)c1 (single isomer, unassigned) [Example 6b] |
| 90 | 40 | N#Cc1ccc(COc2cccc(N3CCN(Cc4nc5cc(Cl)c(C(=O)O)cc5n4C[C@@H]4CCO4)[C@H]4CC[C@H]43)n2)c(F)c1 (single isomer, unassigned) [Example 7b] |
| 250 | – | N#Cc1ccc(COc2cccc(N3CCN(Cc4nc5cc(Cl)c(C(=O)O)cc5n4C[C@@H]4CCO4)[C@H]4CC[C@H]43)n2)c(F)c1 (single isomer, unassigned) [Example 7c] |
| 2.2 | – | CCn1cncc1Cn1c(CN2CCN(c3cccc(OCc4ccc(Cl)cc4F)n3)[C@H]3CC[C@@H]32)nc2c(OC)cc(C(=O)O)cc21 (single isomer, unassigned) [Example 12a] |
